Earlier results as cited in patent US20220000160A1, “FLAVONOID DELIVERY SYSTEM” (priority 2019, published 2022).

SMILES: C[C@@H]1O[C@@H](OC[C@H]2O[C@@H](Oc3c(-c4ccc(O)c(O)c4)oc4cc(O)cc(O)c4c3=O)[C@H](O)[C@@H](O)[C@@H]2O)[C@H](O)[C@H](O)[C@H]1O [Free rutin, quercetin-3-rhamnosylglucoside]
- solubility in ethanol: about 4 % w/v
